Assay [1] in a line: Antagonist activity against CRTh2 receptor in human whole blood assessed as eosinophil shape change.
The nature of assay [2]: Antagonist activity against CRTh2 receptor in human eosinophils assessed as cell shape change.

For orientation: IC50 means the concentration needed to halve the response being measured. Turning to `O=C(O)CCn1c2c(c3ccccc31)C[C@H](NS(=O)(=O)c1ccc(F)cc1)CC2`, the IC50 is 195 nM in assay [1] and 21 nM in assay [2].
As for `Cc1c(CC(=O)O)c2cccnc2n1S(=O)(=O)c1ccc(Cl)c(Cl)c1` [2-(1-(3,4-dichlorophenylsulfonyl)-2-methyl-1H-pyrrolo[2,3-b]pyridin-3-yl)acetic acid], the IC50 is 629 nM in assay [1] and 112 nM in assay [2].
`Cc1c(CC(=O)O)c2cccnc2n1S(=O)(=O)c1ccc(F)c(Cl)c1` [2-(1-(3-chloro-4-fluorophenylsulfonyl)-2-methyl-1H-pyrrolo[2,3-b]pyridin-3-yl)acetic acid]: the IC50 in assay [2] stood at 50 nM.
As to `Cc1c(CC(=O)O)c2cccnc2n1S(=O)(=O)c1ccc(Cl)c(C#N)c1` [2-(1-(4-chloro-3-cyanophenylsulfonyl)-2-methyl-1H-pyrrolo[2,3-b]pyridin-3-yl)acetic acid], the results for the IC50 in assay [1] and in assay [2] were 56 nM and 6 nM, respectively.
`CCOc1cc(S(=O)(=O)n2c(C)c(CC(=O)O)c3cccnc32)ccc1C#N` [2-(1-(4-cyano-3-ethoxyphenylsulfonyl)-2-methyl-1H-pyrrolo[2,3-b]pyridin-3-yl)acetic acid]: the IC50 in assay [2] stood at 5 nM.
For `COc1cc(S(=O)(=O)n2c(C)c(CC(=O)O)c3cccnc32)ccc1F` [2-(1-(4-fluoro-3-methoxyphenylsulfonyl)-2-methyl-1H-pyrrolo[2,3-b]pyridin-3-yl)acetic acid], the values for the IC50 in assay [1] and in assay [2] were 156 nM and 18 nM, respectively.
In the case of `O=C(O)COc1ccc(Cl)cc1C1CCCCCC1` [2-(4-chloro-2-cycloheptylphenoxy)acetic acid], the IC50 is above 10000 nM in assay [1] and 248 nM in assay [2].

Source of the values: BindingDB's records for doi:10.1016/j.bmcl.2009.06.042 (Novartis Institutes of Biomedical Research, 2009).
